{
  "source": "ChEMBL document CHEMBL1240319",
  "about": "“New approaches to molecular cancer therapeutics” (Nat Chem Biol, 2006)",
  "test": "Inhibition of HSP90",
  "note": "pIC50: −log10 of the molar value.",
  "data": [
    {"smiles": "CCNC(=O)c1n[nH]c(-c2cc(Cl)c(O)cc2O)c1-c1ccc(OC)cc1", "values": [
      {"measurement": "pIC50", "result": 7.60}
    ]},
    {"smiles": "CCc1cc(-c2[nH]nc(C)c2-c2ccc3c(c2)OCCO3)c(O)cc1O", "values": [
      {"measurement": "pIC50", "result": 5.05}
    ]}
  ]
}
